Data taken from US6710165B2, “IgE-dependent histamine-releasing factor-binding peptides” (priority 2000, dated 2004).

How the values were obtained:
[1] = molecular target: malaria protein HRF (Plasmodium falciparum, UniProt Q8I3Z5); conditions: cited from earlier work
[2] = test system: RBL-2H3 cells; test: Inhibition of histamine release by HRF (RIA); type: cell-based; conditions: for effect on histamine release by HRF: peptide 20 μg/ml, HRF 20 μg/ml
Protocol: The full-length rat HRF sequence (Chitpatima, et al., 1988) amplified by PCR was cloned in pRSET-A vector and overexpressed in E. coli. The expressed recombinant protein was purified by His-bound Ni column (Novagen) and used for the stimulation of RBL-2H3 cells. RBL-2H3 cells were grown in 24-well plate at 1×10^6 cells, sensitized with rat IgE antibodies (0.2 μg/ml, Serotec) for 45˜60 minutes and then, treated with 20 μg/ml of the recombinant HRF protein (positive control). The cells as prepared above were dose-dependently treated with heptamer peptides p1 and p2. Also, they were treated with the recombinant HRF protein and peptides p1, p2, p4 and m1 to m7 at the same concentration as that of HRF, i.e. 20 μg/ml, respectively,
The obtained sample was prepared to acylated histamine using RIA-analysis kit (Immunotech, France) and then, competitively bound to ^125I-acylated histamine and monoclonal antibodies. This sample was reanalyzed in γ-counter.

[3] = molecular target: T1, HRF (Rattus norvegicus, UniProt P63029); test: Competition binding assay of synthetic peptides against phage clones; conditions: for binding site on HRF, competitive binding analysis on ph2: competition with ph2; for competition of synthetic peptide with phage clones for HRF: peptide 0.001-1000 nM, phage 1/25-fold diluted
T1 construct: His tag (pRSET-A); made in house; host or cells: E. coli
T1 sequence (P63029 1-172): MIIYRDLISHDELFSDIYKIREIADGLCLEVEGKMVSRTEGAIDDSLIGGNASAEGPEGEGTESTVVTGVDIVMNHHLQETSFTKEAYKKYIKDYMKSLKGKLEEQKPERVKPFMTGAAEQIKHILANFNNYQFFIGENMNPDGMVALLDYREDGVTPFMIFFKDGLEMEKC
Protocol: Also, as a negative control, random peptide (ran, amino acid sequence: LMEGCRA) was synthesized. To the wells coated with HRF was added each 30 μl of the peptide solution serially diluted in 6% BSA/PBS from 1000 nM (1000, 100, 10, 1, 0.1, 0.01, 0.001 nM) and the solution was allowed to stand at room temperature for 30 minutes. The 1/25-fold diluted phage solution was added thereto and the whole solution was further allowed to stand for 2 hours. The solution was washed five times with PBST and then, each 100 μl of HRP-conjugated anti-M13 antibodies were added thereto and then, the resulting mixture was allowed to stand for 1 hour. The mixture was washed 6 times with PBST and once with PBS, and thereto was added each 100 μl of peroxydase substrate solution to examine the competition.
b) In order to test whether or not p1, p2 and p4 bind to the identical site on HRF, the wells were coated with HRF according to the substantially same procedure as in the above a).

[4] = test system: PC12 cells; test: Inhibition of HRF-stimulated dopamine release by HRF-binding peptide; type: cell-based; conditions: 60 μg/ml of p2, 15 μg/ml of HRF
Protocol: In order to confirm whether the peptides blocking histamine release by HRF also block neurotransmitters release in nerve cells, the peptide of SEQ ID No. 14 (p2) was tested for its effects on dopamine release stimulated by HRF according to the substantially same procedure as in Example 16.

malaria protein HRF, sequence (Q8I3Z5 whole entry): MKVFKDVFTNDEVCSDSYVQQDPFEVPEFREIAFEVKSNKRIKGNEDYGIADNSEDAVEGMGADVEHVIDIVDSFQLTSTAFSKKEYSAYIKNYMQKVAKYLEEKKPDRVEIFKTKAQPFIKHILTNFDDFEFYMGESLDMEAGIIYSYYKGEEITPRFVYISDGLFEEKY

Row | Compound | effect on histamine release by HRF [2] | further results
1 | C[C@@H]1CC[C@H]2[C@@H](C)C(=O)O[C@@H]3O[C@@]4(C)CC[C@@H]1[C@]32OO4 [Artemisinin] |  | binding to malaria protein HRF [1]: binds to malaria protein HRF
2 | AYVYPSM (OTHER INFORMATION: IgE-dependent histamine-releasi ng factor binding peptide) [m1, p2 variant, alanine substitution] | inhibited histamine release by HRF | 
3 | LVTYPLP (OTHER INFORMATION: IgE-dependent histamine-releasi ng factor binding peptide) [p1] | inhibited histamine release by HRF | binding site on HRF, competitive binding analysis on ph2 [3]: bound to the identical site on HRF
4 | WAVYPSM (OTHER INFORMATION: IgE-dependent histamine-releasi ng factor binding peptide) [m2, p2 variant, alanine substitution] | inhibited histamine release by HRF | 
5 | WEFPGWM (OTHER INFORMATION: IgE-dependent histamine-releasi ng factor binding peptide) [p4] | inhibited histamine release by HRF | binding site on HRF, competitive binding analysis on ph2 [3]: bound to the identical site on HRF; competition of synthetic peptide with phage clones for HRF [3]: bind to HRF competitively with phage clones ph2 and ph4
6 | WYAYPSM (OTHER INFORMATION: IgE-dependent histamine-releasi ng factor binding peptide) [m3, p2 variant, alanine substitution] | inhibited histamine release by HRF | 
7 | WYVAPSM (OTHER INFORMATION: IgE-dependent histamine-releasi ng factor binding peptide) [m4, p2 variant, alanine substitution] | inhibited histamine release by HRF | 
8 | WYVYKSM (OTHER INFORMATION: IgE-dependent histamine-releasi ng factor binding peptide) [m5, p2 variant, substituted with Lysine (K)] | inhibited histamine release by HRF | 
9 | WYVYPAM (OTHER INFORMATION: IgE-dependent histamine rele asing factor binding peptide) [m6, p2 variant, alanine substitution] | conversely stimulated histamine release | 
10 | WYVYPSA [m7, p2 variant, alanine substitution] | inhibited histamine release by HRF | 
11 | WYVYPSM (OTHER INFORMATION: IgE-dependent histamine-releasi ng factor binding peptide) [p2] | inhibited histamine release by HRF | inhibition of HRF-increased dopamine release [4]: about 60%; peptide concentration that inhibited histamine release ([2]; dose-response, 20 μg/ml HRF): ≥ 0.01 µg/mL; binding site on HRF, competitive binding analysis on ph2 [3]: bound to the identical site on HRF; competition of synthetic peptide with phage clones for HRF [3]: bind to HRF competitively with phage clones ph2 and ph4
